{
  "source": "patent US7745465B2",
  "about": "“Method of enhancing cellular production of molecular chaperone, hydroxylamine derivatives useful for enhancing the chaperone production and the preparation thereof” (CytRx Corporation, priority 1995, dated 2010)",
  "key": {"hsp72 gene": {"tested_on": "hsp72 gene", "assay": "Northern blot of hsp72 mRNA in rat heart ventricles", "assay_type": "in vivo", "method": "Experiments were carried out in SPRD male rats. Animals were anaesthetized with Nembutal in a dose of 60 mg/kg/i.p. Body temperature of the rats were maintained with an infra lamp placed over the abdomen and the rectal temperature was measured. After a 25-40 minute period the temperature of the rats increased to 42.0-42.2° C. and this temperature was maintained for 15 minutes. After a recovery period (2 hrs), tissue samples were collected from the left and right ventricles.\nExperiments were carried out in SPRD male rats. The animals were anaesthetized with Nembutal in a dose of 60 mg/kg/i.p. After opening the chest and pericardium, the LAD coronary artery was occluded for 5 minutes and then the incidence and duration of ventricular tachycardia and fibrillation in the reperfusion period (10 minutes) were investigated. Tissue samples were collected from the left and right ventricles.\nTotal RNA was extracted using RN Agents kit (Promega) according to the manufacturer's instructions (Protocols and Applications Guide, 2nd edition, 1991, Promega Corporation). […]\nPrehybridizations were carried out at 65° C. in H-buffer (0.25M Na2HPO4, pH 7.2, 7% SDS) for 15 minutes. […] The membrane was washed with 20 mM Na2HPO4, pH 7.2, 5% SDS (65 C; 2×15 min.) and evaluated by autoradiography. […]"}, "Male Sprague-Dawley rats": {"tested_on": "Male Sprague-Dawley rats", "assay": "Protection against cardiac ischaemia: survival after 5 minutes coronary occlusion and reperfusion", "assay_type": "in vivo, rat"}},
  "data": [
    {"compound": "O=C(O)/C=C\\C(=O)O.OC(CON=C(Cl)c1cccnc1)CN1CCCCC1", "note": "(stereo not shown) [N-[2-hydroxy-3-(1-piperidinyl)-propoxy]3-pyridinecarboximidoyl chloride maleate]", "values": [
      {"measurement": "expression of hsp72 gene in heart muscle preparations", "setting": "hsp72 gene; 100 mg/kg p.o., ischemia", "result": "highly increased expression of hsp72 gene"},
      {"measurement": "activation of the hsp72 gene", "setting": "hsp72 gene; in the absence of stress, compound alone", "result": "unable to activate the hsp72 gene"},
      {"measurement": "Survival (%)", "setting": "Male Sprague-Dawley rats; 20 mg/kgbw p.o.", "result": 100, "unit": "%"},
      {"measurement": "Survival (%)", "setting": "Male Sprague-Dawley rats; i.v. 1 mg/kgbw, 5 min. before the occlusion, non-treated control 10", "result": 100, "unit": "%"}
    ]}
  ]
}
